{"source": "patent US20240100018A1", "about": "“COMPOUNDS FOR THE TREATMENT OF A DISEASE OR DISORDER, METHODS FOR IDENTIFYING SAID COMPOUNDS” (priority 2021, published 2024)", "key": {"[1]": {"tested_on": "HEK293T cells transfected with ACE2 and TMPRSS2, SARS-CoV-2 spike-mediated cell fusion", "assay": "cells", "format": "cell-based, human"}, "[2]": {"tested_on": "HEK293 cells"}, "[3]": {"tested_on": "SARS-CoV-2 Isolate USA-WA1/2020", "assay": "In vitro viral inhibition assay in Vero-E6 cells (spike immunofluorescence)", "format": "cell-based"}, "[4]": {"tested_on": "Vero-E6 cells", "assay": "Toxicity by reduced cell count in the viral inhibition assay", "conditions": "for host cell toxicity (reduced cell count): concentration not given"}, "[5]": {"tested_on": "Covid-19", "conditions": "in vivo; cited from earlier work"}, "[6]": {"conditions": "human, in vivo; cited from earlier work"}, "[7]": {"tested_on": "Calu-3 lung cancer cells, SARS-CoV-2 spike-mediated cell fusion", "format": "cell-based, human"}, "[8]": {"tested_on": "Vero-E6 cells"}, "[9]": {"conditions": "summary call Active / Not Tested, cell line not given"}, "[10]": {"conditions": "HEK293 syncytia assay, dose-response"}, "[11]": {"conditions": "summary call Active / Not Tested"}}, "note": "Entries after “also recorded” stand apart in the source; their conditions may differ. Where a name gives a salt, the structure may show the parent alone. Read-outs that look alike come from different tables or passages of the source."}
{"compound": "CN(C)CCC(c1ccc(Br)cc1)c1ccccn1", "note": "(centres unmarked) [brompheniramine, Brompheniramine]", "values": [{"measurement": "inhibition of syncytia formation (cell fusion)", "setting": "[1]", "result": "impaired viral entry; also recorded: to a lesser extent, brompheniramine, showed dose-responsive inhibition of syncytia formation; also recorded: inhibited syncytia formation"}, {"measurement": "Syncytia Assay", "setting": "[1]; [9]", "result": "Active"}, {"measurement": "cell loss / cytotoxicity (total GFP)", "setting": "[2]; [10]", "result": "did not mirror cell loss"}]}
{"compound": "O=C1[C@H](CC[C@H](O)c2ccc(F)cc2)[C@@H](c2ccc(O)cc2)N1c1ccc(F)cc1", "note": "[ezetimibe, Ezetimibe]", "values": [{"measurement": "reduction of spike protein-expressing populations", "setting": "[3]; 25 μM (highest concentration studied), Vero-E6", "result": "reduced spike protein-expressing populations only at the highest concentration studied"}, {"measurement": "Viral Entry Assay", "setting": "[3]; [11]", "result": "Active"}, {"measurement": "activity in the cell fusion assay", "setting": "[1]", "result": "inactive"}, {"measurement": "inhibition of syncytia formation (cell fusion)", "setting": "[1]", "result": "impaired viral entry; also recorded: had inhibitory activity in the cell fusion assay; also recorded: inhibited both viral infection and cell fusion"}, {"measurement": "potency in the cell fusion assay relative to the viral infection assay", "setting": "[1]", "result": "lower potency in the cell fusion assay"}, {"measurement": "Syncytia Assay", "setting": "[1]; [9]", "result": "Active"}, {"measurement": "cell numbers", "setting": "[4]; 25 μM, Vero-E6", "result": "reduction in cell numbers was also observed"}]}
{"compound": "COCCCC/C(=N\\OCCN)c1ccc(C(F)(F)F)cc1", "note": "[fluvoxamine]", "values": [{"measurement": "decrease of Covid-19 deaths", "setting": "[5]", "result": 90, "unit": "%"}]}
{"compound": "CCCCCCc1ccc(O)cc1O", "note": "[hexylresorcinol, Hexylresorcinol]", "values": [{"measurement": "Syncytia Assay", "setting": "[1]; [9]", "result": "Active"}, {"measurement": "cell loss / cytotoxicity (total GFP)", "setting": "[2]; [10]", "result": "mirrored by cell loss"}]}
{"compound": "CN(C)CCCN1c2ccccc2CCc2ccccc21", "note": "[imipramine, Imipramine hydrochloride]", "values": [{"measurement": "Syncytia Assay", "setting": "[1]", "result": "Active"}, {"measurement": "inhibition of syncytia formation (cell fusion)", "setting": "[1]; hydrochloride", "result": "impaired viral entry; also recorded: inhibited syncytia formation"}]}
{"compound": "C[C@]1(O)C[C@@H](c2nc(-c3ccc4ccc(-c5ccccc5)nc4c3)c3c(N)nccn32)C1", "note": "[linsitinib, Linsitinib]", "values": [{"measurement": "inhibition of syncytia formation (cell fusion)", "setting": "[1]", "result": "impaired viral entry; also recorded: particularly effective; also recorded: most potent agent; also recorded: dose-responsive inhibition of syncytia formation; also recorded: complete inhibition of cell fusion; also recorded: substantially reduced spike-protein-dependent syncytia formation"}, {"measurement": "EC50", "setting": "[1]; Homo sapiens, HEK-293T, cell fusion (syncytia) assay", "result": 25, "unit": "µM"}, {"measurement": "inhibition of syncytia formation (cell fusion)", "setting": "[1]; listed as Linsitinib", "result": "highest inhibitory activity"}, {"measurement": "inhibition of syncytia formation (cell fusion)", "setting": "[1]; listed as linisitinib", "result": "highest inhibitory activity"}, {"measurement": "Syncytia Assay", "setting": "[1]; [9]", "result": "Active"}, {"measurement": "Cmax", "setting": "[6]", "result": "5 to 10", "unit": "µM"}]}
{"compound": "N=C(N)c1ccc2cc(OC(=O)c3ccc(N=C(N)N)cc3)ccc2c1", "note": "[nafamostat]", "values": [{"measurement": "inhibition of syncytia formation (cell fusion)", "setting": "[7]", "result": "prevented syncytia formation"}, {"measurement": "cell loss / cytotoxicity (total GFP)", "setting": "[2]; [10]", "result": "did not mirror cell loss"}]}
{"compound": "CC(=O)c1c(O)c(C)c(O)c(Cc2c(O)c3c(c(C(=O)/C=C/c4ccccc4)c2O)OC(C)(C)C=C3)c1O", "note": "[rottlerin, Rottlerin]", "values": [{"measurement": "antiviral activity / inhibition of SARS-CoV-2 infection in Vero-E6 cells", "setting": "[3]; […], concentration not stated, listed as Rottlerin", "result": "inhibited viral infection"}, {"measurement": "Viral Entry Assay", "setting": "[3]; [11]", "result": "Active"}, {"measurement": "host cell toxicity (reduced cell count)", "setting": "[4]; Vero-E6", "result": "dose-limiting toxicity"}, {"measurement": "host cell toxicity (reduced cell count)", "setting": "[4]; Vero-E6, listed as R077", "result": "dose-limiting toxicity as evidenced by reduced cell count"}]}
{"compound": "OCc1cc(C(O)CNCCCCCCOCCCCc2ccccc2)ccc1O", "note": "(centres unmarked) [salmeterol, Salmeterol]", "values": [{"measurement": "Viral Entry Assay", "setting": "[3]", "result": "Active"}, {"measurement": "antiviral activity / inhibition of SARS-CoV-2 infection in Vero-E6 cells", "setting": "[3]", "result": "exhibited antiviral activities; also recorded: prevented viral infection; also recorded: particularly strong inhibitory activities; also recorded: particularly effective; also recorded: can block in vitro SARS-CoV-2 replication at clinically relevant concentrations"}, {"measurement": "antiviral effect on spike-expressing cell population", "setting": "[3]", "result": "reduced the median of the spike-expressing population; also recorded: greater antiviral effect on the entire population"}, {"measurement": "spike-positive cells", "setting": "[3]", "result": "~14", "unit": "%"}, {"measurement": "Syncytia Assay", "setting": "[1]", "result": "Active"}, {"measurement": "inhibition of syncytia formation (cell fusion)", "setting": "[1]", "result": "had inhibitory activity in the cell fusion assay and full and not borne out by syncytia formation experiments with either HEK293T or Calu-3 cells, except at high concentration"}, {"measurement": "potency in the cell fusion assay relative to the viral infection assay", "setting": "[1]", "result": "at least two orders of magnitude less potent"}, {"measurement": "inhibition of syncytia formation (cell fusion)", "setting": "[7]", "result": "not borne out by syncytia formation experiments with either HEK293T or Calu-3 cells, except at high concentration"}, {"measurement": "host cell toxicity (reduced cell count)", "setting": "[8]", "result": "without apparent host cell toxicity"}, {"measurement": "cell loss / cytotoxicity (total GFP)", "setting": "[2]", "result": "mirrored by cell loss"}]}
{"compound": "Cc1cc(C)c(/C=C2\\C(=O)Nc3ccccc32)[nH]1", "note": "[semaxanib, Semaxanib]", "values": [{"measurement": "Syncytia Assay", "setting": "[1]; [9]", "result": "Active"}]}
{"compound": "CO[C@H]1C[C@@H]2CC[C@@H](C)[C@@](O)(O2)C(=O)C(=O)N2CCCC[C@H]2C(=O)O[C@H]([C@H](C)C[C@@H]2CC[C@@H](OC(=O)C(C)(CO)CO)[C@H](OC)C2)CC(=O)[C@H](C)/C=C(\\C)[C@@H](O)[C@@H](OC)C(=O)[C@H](C)C[C@H](C)/C=C/C=C/C=C/1C", "note": "[temsirolimus, Temsirolimus]", "values": [{"measurement": "antiviral activity / inhibition of SARS-CoV-2 infection in Vero-E6 cells", "setting": "[3]; […], concentration not stated", "result": "Qualitatively similar results to salmeterol"}, {"measurement": "Viral Entry Assay", "setting": "[3]; [11]", "result": "Active"}]}
{"compound": "CCC(=O)N1CCN(c2ccc(-n3c(=O)ccc4cnc5ccc(-c6cnc7ccccc7c6)cc5c43)cc2C(F)(F)F)CC1", "note": "[torin-1, Torin-1]", "values": [{"measurement": "antiviral activity / inhibition of SARS-CoV-2 infection in Vero-E6 cells", "setting": "[3]; […], concentration not stated", "result": "Qualitatively similar results to salmeterol"}, {"measurement": "Viral Entry Assay", "setting": "[3]; [11]", "result": "Active"}, {"measurement": "host cell toxicity (reduced cell count)", "setting": "[8]", "result": "dose-limiting toxicity as evidenced by reduced cell count"}, {"measurement": "toxicity", "setting": "[4]; 100 nM", "result": "toxic"}]}
{"compound": "Dec-RVKR-CMK", "values": [{"measurement": "inhibition of syncytia formation (cell fusion)", "setting": "[1]; HEK293T acceptor cells with ACE2 and TMPRSS2, 1-2 h pretreatment, 4 h co-culture", "result": "prevented syncytia formation; also recorded: similarly potent in both cell types; also recorded: dose-responsive inhibition of syncytia formation"}, {"measurement": "inhibition of syncytia formation (cell fusion)", "setting": "[7]; Calu-3 acceptor cells, 1-2 h pretreatment, 4 h co-culture", "result": "prevented syncytia formation; also recorded: seemingly larger maximal magnitude of inhibition"}, {"measurement": "cell loss / cytotoxicity (total GFP)", "setting": "[2]; [10]", "result": "did not mirror cell loss"}]}
